Values joined by “and” are separate entries in the source; they are usually repeats but may differ in a detail not shown here. Equal values may be shown once. Read-outs that look alike come from different tables or passages of the source.
How the values were obtained:
SARS-CoV-2 [1] = format: cell-based; settings: HEK293T cells stably expressing ACE2
HEK293T-ACE2 cells = settings: up to 10 mM compound
[2] = molecular target: benzodiazepine binding site of human GABAA receptors containing either an α1, α2, α3 or α5 subunit; settings: read-out: affinity; cited from earlier work
GABAA receptors = settings: cited from earlier work
SARS-CoV-2 [3] = assay: microbe, parasite or virus in culture; format: cell-based; settings: for % Infection (1 uM) / % Infection (5 uM): single replicate of triplicate; for Normalized Infection (1 uM) / log2FC Infection (1 uM) / Normalized Infection (5 uM) / log2FC Infection (5 uM) / activity at 1 µM / activity at 5 µM: single replicate, relative to negative control DMSO; for HIT: overall, 1 or 5 uM; for activity at 1 µM: Severe acute respiratory syndrome coronavirus 2, 1 uM, read-out: Normalized Infection (1 uM); for activity at 5 µM: Severe acute respiratory syndrome coronavirus 2, 5 uM, read-out: Normalized Infection (5 uM)
[4] = for Average Cell Number (1 uM) / Cell Number (1 uM) / Normalized Cell Number (1 uM): compound at 1 uM; for Average Cell Number (1 uM) / Average Cell Number (5 uM): average of normalized cell number, n=3, relative to DMSO; for Cell Number (1 uM) / Normalized Cell Number (1 uM) / Cell Number (5 uM) / Normalized Cell Number (5 uM): single replicate; for Cell Number (1 uM) / Cell Number (5 uM): raw cell count; for Normalized Cell Number (1 uM) / Normalized Cell Number (5 uM): relative to negative control DMSO; for Average Cell Number (5 uM) / Cell Number (5 uM) / Normalized Cell Number (5 uM): compound at 5 uM
[5] = 1 uM, average log2FC infection (n=3) relative to DMSO
[6] = 5 uM, average log2FC infection (n=3) relative to DMSO

Row | Compound | HIT (2 Std, 1 uM) (SARS-CoV-2 [3]; 1 uM) | HIT (SARS-CoV-2 [3]) | Toxic (1 uM) [4] | Toxic (5 uM) [4] | Average Cell Number (1 uM) [4] | Cell Number (1 uM) [4] | Normalized Cell Number (1 uM) [4] | Average Cell Number (5 uM) [4] | Cell Number (5 uM) [4] | Normalized Cell Number (5 uM) [4] | Average Infection (1 uM) (SARS-CoV-2 [3]; [5]) | Average Infection (5 uM) (SARS-CoV-2 [3]; [6]) | activity at 1 µM (SARS-CoV-2 [3]) | activity at 5 µM (SARS-CoV-2 [3]) | also measured
1 | CN[C@@H](C)C(=O)N[C@H](C(=O)N1CCC[C@H]1C(=O)N[C@H]1c2ccccc2C[C@H]1OCC#CC#CCO[C@@H]1Cc2ccccc2[C@@H]1NC(=O)[C@@H]1CCCN1C(=O)[C@@H](NC(=O)[C@H](C)NC)C1CCCCC1)C1CCCCC1 [AZD5582] | – | – | – | – | – | – | – | – | – | – | – | – | – | – | antiviral activity (SARS-CoV-2 [1]): excellent activity; cytotoxicity (HEK293T-ACE2 cells): no observable cytotoxicity
2 | CC(C)CCC(=O)CC1c2ccccc2C(=O)N1c1ccc2ccc(Cl)nc2n1 (centres unmarked) [Pagoclone] | – | – | – | – | – | – | – | – | – | – | – | – | – | – | Ki [2]: 0.7 to 9.1 nM; efficacy at α1-, α2- and α5-containing GABAA receptors (GABAA receptors; α1-, α2- and α5-containing): partial agonist; efficacy at receptors containing an α3 subunit (GABAA receptors; α3 subunit): full agonist
3 | CN[C@@H](C)C(=O)N[C@H]1CCS[C@H]2CC(C)(C)[C@@H](C(=O)N[C@H]3c4ccccc4C[C@H]3OCC#CC#CCO[C@@H]3Cc4ccccc4[C@@H]3NC(=O)[C@H]3N4C(=O)[C@@H](NC(=O)[C@H](C)NC)CCS[C@H]4CC3(C)C)N2C1=O [Ciapavir] | – | – | – | – | – | – | – | – | – | – | – | – | – | – | antiviral activity (SARS-CoV-2 [1]): excellent activity; cytotoxicity (HEK293T-ACE2 cells): no observable cytotoxicity
4 | CC(C)C[C@@H](NC(=O)[C@H](Cc1ccccc1)NC(=O)CNC(=O)[C@@H](C)NC(=O)[C@@H](N)Cc1ccc(O)cc1)C(=O)O [DADLE, L-Tyrosyl-D-alanylglycyl-L-phenylalanyl-D-leucine] | HIT | Yes | 0 (non-toxic (Normalized Cell number>0.65) | 0 (non-toxic (Normalized Cell number>0.65) | 0.7534 | 4511 and 4466 and 4268 | 0.7698 and 0.7621 and 0.7283 | 0.9869 | 5991 and 5664 and 5891 | 1.011 and 0.9558 and 0.9941 | – | – | – | – | Average Infection (1 uM) (SARS-CoV-2 [3]): −0.6223; Average Infection (5 uM) (SARS-CoV-2 [3]): −0.2501; % Infection (1 uM) (SARS-CoV-2 [3]; 1 uM): 17.22% and 16.52% and 17.46%; Normalized Infection (1 uM) (SARS-CoV-2 [3]; 1 uM): 0.6557 and 0.6291 and 0.6645; log2FC Infection (1 uM) (SARS-CoV-2 [3]; 1 uM): −0.6088 and −0.6686 and −0.5896; % Infection (5 uM) (SARS-CoV-2 [3]; 5 uM): 13.22% and 10.81% and 15.19%; Normalized Infection (5 uM) (SARS-CoV-2 [3]; 5 uM): 0.8586 and 0.7017 and 0.9867; log2FC Infection (5 uM) (SARS-CoV-2 [3]; 5 uM): −0.22 and −0.511 and −0.01933
5 | CC1(C)Cc2c(-c3ccccc3)c(-c3ccc(Cl)cc3)c(CC(=O)O)n2C1 [Licofelone, licofelone] | HIT | Yes | – | 0 (non-toxic (Normalized Cell number>0.65) | 0.6254 | 3716 and 3591 and 3687 | 0.6341 and 0.6128 and 0.6292 | 0.8061 | 4830 and 4798 and 4704 | 0.815 and 0.8096 and 0.7938 | −0.7411 | −0.555 | 59.1% | – | HIT (2 Stdv, 5 uM) (SARS-CoV-2 [3]; 5 uM): HIT
6 | lonafarnib | HIT | Yes | 0 (non-toxic (Normalized Cell number>0.65) | – | 0.6561 | 3801 and 4072 and 3662 | 0.6486 and 0.6949 and 0.6249 | 0.6416 | 3696 and 3879 and 3831 | 0.6546 and 0.6465 | – | – | – | – | Average Infection (1 uM) (SARS-CoV-2 [3]): −0.6667; Average Infection (5 uM) (SARS-CoV-2 [3]): −1.3; % Infection (1 uM) (SARS-CoV-2 [3]; 1 uM): 17.44% and 15.37%; Normalized Infection (1 uM) (SARS-CoV-2 [3]; 1 uM): 0.6641 and 0.5853; log2FC Infection (1 uM) (SARS-CoV-2 [3]; 1 uM): −0.5906 and −0.7727; HIT (2 Stdv, 5 uM) (SARS-CoV-2 [3]; 5 uM): HIT; % Infection (5 uM) (SARS-CoV-2 [3]; 5 uM): 6.304% and 5.672% and 6.839%; Normalized Infection (5 uM) (SARS-CoV-2 [3]; 5 uM): 0.4094 and 0.3683 and 0.4442; log2FC Infection (5 uM) (SARS-CoV-2 [3]; 5 uM): −1.288 and −1.441 and −1.171
7 | CCC[C@H](N[C@@H](C)C(=O)N1[C@H](C(=O)O)C[C@@H]2CCCC[C@@H]21)C(=O)OCC [Perindopril, perindopril] | HIT | Yes | 0 (non-toxic (Normalized Cell number>0.65) | 0 (non-toxic (Normalized Cell number>0.65) | 0.7365 | 4330 and 4259 and 4358 | 0.7389 and 0.7268 and 0.7437 | 0.9903 | 5734 and 6091 and 5782 | 0.9676 and 1.028 and 0.9757 | −0.8775 | −0.1846 | 62.3% | 96.4% | –
8 | CC1(C)S[C@@H]2[C@H](NC(=O)[C@H](N)c3ccccc3)C(=O)N2[C@H]1C(=O)O [Ampicillin, ampicillin] | HIT | Yes | 0 (non-toxic (Normalized Cell number>0.65) | 0 (non-toxic (Normalized Cell number>0.65) | 0.694 | 3959 and 4296 and 3945 | 0.6756 and 0.7331 and 0.6732 | 0.9658 | 5481 and 5912 and 5777 | 0.9249 and 0.9976 and 0.9748 | −0.9564 | −0.0334 | 48.2% | 102% | –
9 | N=C(N)c1ccc2nc(-c3cc(CC(=O)N[C@@H](CC(=O)O)C(=O)O)cc(-c4cc(S(N)(=O)=O)ccc4O)c3O)[nH]c2c1 [PCl 27483, pci-27483] | HIT | Yes | 0 (non-toxic (Normalized Cell number>0.65) | 0 (non-toxic (Normalized Cell number>0.65) | 0.775 | 4643 and 4781 and 4200 | 0.7923 and 0.8159 and 0.7167 | 0.9439 | 5909 and 5702 and 5170 | 0.9971 and 0.9622 and 0.8724 | −0.6789 | 0.006187 | 58% | 104% | –
10 | C[N+]12CCC(CC1)C(OC(=O)C(O)(c1ccccc1)c1ccccc1)C2 (centres unmarked) [Clidinium, clidinium] | HIT | Yes | 0 (non-toxic (Normalized Cell number>0.65) | 0 (non-toxic (Normalized Cell number>0.65) | 0.6841 | 3871 and 4256 and 3900 | 0.6606 and 0.7263 and 0.6655 | 0.9985 | 5211 and 6271 and 6270 | 0.8793 and 1.058 (2×) | – | – | – | – | Average Infection (1 uM) (SARS-CoV-2 [3]): −0.7651; Average Infection (5 uM) (SARS-CoV-2 [3]): −0.1069
11 | C[C@@H]1CN(Cc2ccc(F)cc2)[C@@H](C)CN1C(=O)c1cc2c(C(=O)C(=O)N(C)C)cn(C)c2cc1Cl [SCIO 469, talmapimod] | HIT | Yes | 0 (non-toxic (Normalized Cell number>0.65) | 0 (non-toxic (Normalized Cell number>0.65) | 0.7439 | 3987 and 4564 and 4526 | 0.6804 and 0.7788 and 0.7724 | 0.95 | 5672 and 5345 and 5872 | 0.9571 and 0.9019 and 0.9909 | −1.039 | −0.8454 | 47.9% | 57.5% | HIT (2 Stdv, 5 uM) (SARS-CoV-2 [3]; 5 uM): HIT
